In data set [1] the test system is glutamate carboxypeptidase II. As to conditions: cited from earlier work.
Data set [2] can be described thus: Ex vivo biodistribution in mice bearing LNCaP tumor xenografts. As to conditions: mouse, iv, mean ± SD. On the set-up: species or system mouse (male NOD-scid IL2Rg^null (NSG)). The protocol:
(§1) All imaging and biodistribution studies used male NOD-scid IL2Rg^null (NSG) mice and conducted according to the guidelines established by the Canadian Council on Animal Care and approved by Animal Ethics Committee of the University of British Columbia. For tumor inoculations, mice were anesthetized via inhalation of 2% isoflurane in oxygen and implanted subcutaneously with 5×10^6 LNCaP cells below the left shoulder. Imaging and biodistribution studies were performed only after tumors grew to 5-8 mm in diameter.
(§2) For PET/CT imaging studies, approximately 5 MBq of the ^18F-labeled tracer was injected through the tail vein. While for ex vivo biodistribution studies, mice were injected with around 2 MBq of the ^18F-labeled tracer through the tail vein. Mice were allowed to recover and roam freely in the cages after injecting the tracer. At 45 min post-injection, imaging mouse were sedated again and positioned on the scanner. A 10 min CT scan was conducted first to allow for localization and attenuation correction for later reconstruction of PET images. A 10 min PET image was acquired following CT scan. Heating pads were used during the entire procedure to keep the mice warm and circulate the blood. At 1 h post-injection, all mice for biodistribution study were euthanized with blood drawn from heart, and all tissues of interest were collected, rinsed with PBS, blotted dry, weighed, and counted using an automated gamma counter. The uptake in each organ/tissue was normalized to the injected dose and expressed as the percentage of the injected dose per gram of tissue (% ID/g).
(§3) Representative maximum intensity projection PET images of ^18F-KLF1007-pyridine-BF3 and ^18F-KL01040 acquired at 1 h post-injection from LNCaP tumor-bearing mice is enumerated in Table 4 and shown in FIG. 1. Representative maximum intensity projection PET images of ^18F-KL01120 and ^18F-KL01130 acquired at 1 h post-injection from LNCaP tumor-bearing mice is also enumerated in Table 5 and shown in FIG. 2 (^18F-KL1120) and enumerated in Table 6 and shown in FIG. 3 (^18F-KL01130).

The test system of another data set is LNCaP tumor xenografts. The data set is described as above. On the set-up: species or system mouse (male NOD-scid IL2Rg^null (NSG)). As to conditions: mean ± SD. As to the method:
as §1, §2, §3

Where [3] appears, read: 1 h Blocked (co-injection of 2-PMPA, 0.5 mg).

Read-outs that look alike come from different tables or passages of the source.

On to `O=C(O)CC[C@H](NC(=O)N[C@@H](CCCCNC(=O)c1ccc(F)nc1)C(=O)O)C(=O)O` [^18F-DCFPyL], for which, in data set [1] (reduces sensitivity for detecting metastatic lesions in liver), the liver uptake entry is recorded as “high”.

`O=C(O)CCC[C@H](NC(=O)N[C@@H](CCCCNC(=O)[C@H](Cc1c2ccccc2cc2ccccc12)NC(=O)[C@H]1CC[C@H](CNC(=O)CNC(=O)[C@H](CCCCNC(=O)c2ccc(F)nc2)NC(=O)CN(CC(=O)O)CC(=O)O)CC1)C(=O)O)C(=O)O` [^18F-KL01130]: the tissue uptake at 1 h in data set [2] (adrenal glands, 1 h Blocked (co-injection of 2-PMPA, 0.5 mg), read-out: Adrenal Glands uptake) was 0.39 ± 0.17 %ID/g; in data set [2] (adrenal glands, 1 h post-injection, read-out: Adrenal Glands uptake), 0.59 ± 0.06 %ID/g; in data set [2] (blood, 1 h Blocked (co-injection of 2-PMPA, 0.5 mg), read-out: Blood uptake) it was 1.78 ± 0.12 %ID/g; in data set [2] (blood, 1 h post-injection, read-out: Blood uptake), 1.2 ± 0.26 %ID/g; in data set [2] (bone, 1 h Blocked (co-injection of 2-PMPA, 0.5 mg), read-out: Bone uptake), 0.57 ± 0.16 %ID/g; in data set [2] (bone, 1 h post-injection, read-out: Bone uptake) it was 0.52 ± 0.17 %ID/g. Also, the tissue uptake at 1 h in data set [2] (brain, 1 h Blocked (co-injection of 2-PMPA, 0.5 mg), read-out: Brain uptake) was determined as 0.04 %ID/g; in data set [2] (brain, 1 h post-injection, read-out: Brain uptake) it was 0.04 ± 0.01 %ID/g; in data set [2] (fat, 1 h Blocked (co-injection of 2-PMPA, 0.5 mg), read-out: Fat uptake), 0.33 ± 0.1 %ID/g; in data set [2] (fat, 1 h post-injection, read-out: Fat uptake), 0.22 ± 0.09 %ID/g; in data set [2] (heart, 1 h Blocked (co-injection of 2-PMPA, 0.5 mg), read-out: Heart uptake), 0.45 ± 0.05 %ID/g; in data set [2] (heart, 1 h post-injection, read-out: Heart uptake), 0.34 ± 0.07 %ID/g. Moreover, the tissue uptake at 1 h stood at 4.77 ± 0.3 %ID/g in data set [2] (kidneys, 1 h Blocked (co-injection of 2-PMPA, 0.5 mg), read-out: Kidneys uptake); 19 ± 5.04 %ID/g in data set [2] (kidneys, 1 h post-injection, read-out: Kidneys uptake); 0.04 ± 0.02 %ID/g in data set [2] (lacrimal glands, 1 h Blocked (co-injection of 2-PMPA, 0.5 mg), read-out: Lacrimal Glands uptake); 0.1 ± 0.06 %ID/g in data set [2] (lacrimal glands, 1 h post-injection, read-out: Lacrimal Glands uptake); 0.26 ± 0.1 %ID/g in data set [2] (large intestine, 1 h Blocked (co-injection of 2-PMPA, 0.5 mg), read-out: Large Intestine uptake); 0.2 ± 0.1 %ID/g in data set [2] (large intestine, 1 h post-injection, read-out: Large Intestine uptake). Moreover, the tissue uptake at 1 h in data set [2] (liver, 1 h Blocked (co-injection of 2-PMPA, 0.5 mg), read-out: Liver uptake) is 0.67 ± 0.07 %ID/g; in data set [2] (liver, 1 h post-injection, read-out: Liver uptake), 0.47 ± 0.06 %ID/g; in data set [2] (lncap tumor, 1 h Blocked (co-injection of 2-PMPA, 0.5 mg), read-out: LNCaP Tumor uptake), 2.11 ± 0.02 %ID/g; in data set [2] (lncap tumor, 1 h post-injection, read-out: LNCaP Tumor uptake), 8.01 ± 0.9 %ID/g; in data set [2] (lungs, 1 h Blocked (co-injection of 2-PMPA, 0.5 mg), read-out: Lungs uptake), 1.22 ± 0.17 %ID/g; in data set [2] (lungs, 1 h post-injection, read-out: Lungs uptake), 0.96 ± 0.19 %ID/g. The tissue uptake at 1 h amounted to 0.2 ± 0.02 %ID/g in data set [2] (muscle, 1 h Blocked (co-injection of 2-PMPA, 0.5 mg), read-out: Muscle uptake); 0.34 ± 0.24 %ID/g in data set [2] (muscle, 1 h post-injection, read-out: Muscle uptake); 0.32 ± 0.04 %ID/g in data set [2] (pancreas, 1 h Blocked (co-injection of 2-PMPA, 0.5 mg), read-out: Pancreas uptake); 0.21 ± 0.05 %ID/g in data set [2] (pancreas, 1 h post-injection, read-out: Pancreas uptake); 0.49 ± 0.14 %ID/g in data set [2] (salivary glands, 1 h Blocked (co-injection of 2-PMPA, 0.5 mg), read-out: Salivary Glands uptake); 0.52 ± 0.18 %ID/g in data set [2] (salivary glands, 1 h post-injection, read-out: Salivary Glands uptake). Moreover, the tissue uptake at 1 h in data set [2] (seminal gland, 1 h Blocked (co-injection of 2-PMPA, 0.5 mg), read-out: Seminal Gland uptake) came to 0.22 ± 0.06 %ID/g; in data set [2] (seminal glands, 1 h post-injection, read-out: Seminal Glands uptake), 0.15 ± 0.04 %ID/g; in data set [2] (small intestine, 1 h Blocked (co-injection of 2-PMPA, 0.5 mg), read-out: Small Intestine uptake) it was 2.4 ± 0.36 %ID/g; in data set [2] (small intestine, 1 h post-injection, read-out: Small Intestine uptake) it was 2.01 ± 0.6 %ID/g; in data set [2] (spleen, 1 h Blocked (co-injection of 2-PMPA, 0.5 mg), read-out: Spleen uptake), 0.31 ± 0.06 %ID/g; in data set [2] (spleen, 1 h post-injection, read-out: Spleen uptake), 0.36 ± 0.09 %ID/g. In addition, the tissue uptake at 1 h was found to be 0.36 ± 0.15 %ID/g in data set [2] (stomach, 1 h Blocked (co-injection of 2-PMPA, 0.5 mg), read-out: Stomach uptake); 0.19 ± 0.11 %ID/g in data set [2] (stomach, 1 h post-injection, read-out: Stomach uptake); 0.41 ± 0.05 %ID/g in data set [2] (testes, 1 h Blocked (co-injection of 2-PMPA, 0.5 mg), read-out: Testes uptake); 0.29 ± 0.05 %ID/g in data set [2] (testes, 1 h post-injection, read-out: Testes uptake); 0.48 ± 0.03 %ID/g in data set [2] (thyroid, 1 h Blocked (co-injection of 2-PMPA, 0.5 mg), read-out: Thyroid uptake); 0.38 ± 0.16 %ID/g in data set [2] (thyroid, 1 h post-injection, read-out: Thyroid uptake). Besides, the “Tumor:Muscle uptake ratio” value in the data set on LNCaP tumor xenografts (setting [3]) amounted to 10.4 ± 1.31; with LNCaP tumor xenografts (1 h post-injection), 35.7 ± 5.75. In addition, the “Tumour:Blood uptake ratio” value with LNCaP tumor xenografts (setting [3]) worked out at 1.19 ± 0.12; with LNCaP tumor xenografts (1 h post-injection), 6.93 ± 1.54. Also, the “Tumour:Bone uptake ratio” value in the data set with LNCaP tumor xenografts (setting [3]) came to 3.89 ± 1.05; with LNCaP tumor xenografts (1 h post-injection) it was 14.6 ± 4.27. Further, the “Tumour:Kidney uptake ratio” value is 0.44 ± 0.05 with LNCaP tumor xenografts (setting [3]) and 0.59 ± 0.35 in the data set on LNCaP tumor xenografts (1 h post-injection).

`O=C(O)CC[C@H](NC(=O)N[C@@H](CCCCNC(=O)[C@H](Cc1ccc2ccccc2c1)NC(=O)c1ccc(CNC(=O)[C@H](CCC(=O)O)NC(=O)[C@H](CCC(=O)O)NC(=O)c2ccc(F)nc2)cc1)C(=O)O)C(=O)O` [^18F-PSMA-1007]: the “nonspecific uptake level in most normal tissues” value in data set [1] (compared to ^18F-DCFPyL) is recorded as “even higher”.

The values above are taken from patent US20260306680A1, “RADIOLABELED COMPOUNDS TARGETING THE PROSTATE-SPECIFIC MEMBRANE ANTIGEN” (PROVINCIAL HEALTH SERVICES AUTHORITY, priority 2022, published 2026).
